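Following 48 hours of exposure in 96-well plates, responses at five concentrations were used to interpolate endpoints linearly. At the TGI there is no net growth.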
Columns and labels:
Assay in all cases: NCI-60 cell line screen, 48 h
[1] = test system: NCI-H460 lung
[2] = test system: KM12 colon
[3] = test system: EKVX NSCLC
[4] = test system: UACC-62 melanoma
[5] = test system: DLD-1 colon
[6] = test system: KM20L2 colon
[7] = test system: DMS 273 small cell lung
[8] = test system: OVCAR-5 ovarian
[9] = test system: SNB-78 CNS
[10] = test system: MALME-3M melanoma
[11] = test system: OVCAR-8 ovarian
[12] = test system: M14 melanoma
[13] = test system: HOP-92 NSCLC
[14] = test system: CCRF-CEM leukemia
[15] = test system: SNB-19 CNS
[16] = test system: SR leukemia
[17] = test system: OVCAR-4 ovarian
[18] = test system: IGROV1 ovarian
[19] = test system: COLO 205 colon
[20] = test system: HCT-15 colon
[21] = test system: OVCAR-3 ovarian
[22] = test system: DMS 114 small cell lung
[23] = test system: U251 CNS
[24] = test system: A549 NSCLC
[25] = test system: XF 498 CNS
[26] = test system: UACC-257 melanoma
[27] = test system: SK-MEL-28 melanoma
[28] = test system: K-562 leukemia
[29] = test system: CAKI-1 renal
[30] = test system: UO-31 renal
[31] = test system: SF-268 CNS
[32] = test system: HOP-62 NSCLC
[33] = test system: NCI-H23 lung
[34] = test system: SNB-75 CNS
[35] = test system: NCI-H522 lung
[36] = test system: SW-620 colon
[37] = test system: HT29 colon
[38] = test system: SK-OV-3 ovarian
[39] = test system: A498 renal
[40] = test system: RXF 393 renal
[41] = test system: ACHN renal
[42] = test system: SF-295 CNS
[43] = test system: NCI-H226 lung
[44] = test system: MOLT-4 leukemia
[45] = test system: TK-10 renal
[46] = test system: SN12C renal
[47] = test system: RPMI-8226 leukemia
[48] = test system: HCC-2998 colon
[49] = test system: SK-MEL-2 melanoma
[50] = test system: SF-539 CNS
[51] = test system: LXFL 529 NSCLC
[52] = test system: HL-60(TB) leukemia
[53] = test system: HCT-116 colon
[54] = test system: SK-MEL-5 melanoma
[55] = test system: DU-145 prostate
[56] = test system: LOX IMVI melanoma
[57] = test system: T-47D breast
[58] = test system: MDA-N
[59] = test system: MCF7 breast
[60] = test system: NCI/ADR-RES ovarian
[61] = test system: HS 578T breast
[62] = test system: BT-549 breast
[63] = test system: MDA-MB-435
[64] = test system: PC-3 prostate
[65] = test system: MDA-MB-231 breast
[66] = test system: 786-0 renal

CO/C(=N\N=C\c1ccc(Cl)cc1)c1ccncc1
TGI [1]: > 100 µM | TGI [2]: > 100 µM | TGI [3]: > 100 µM | TGI [4]: > 100 µM | TGI [5]: > 100 µM | TGI [6]: > 100 µM | TGI [7]: > 100 µM | TGI [8]: > 100 µM | TGI [9]: > 100 µM | TGI [10]: > 100 µM | TGI [11]: > 100 µM | TGI [12]: > 100 µM | TGI [13]: > 100 µM | TGI [14]: > 100 µM | TGI [15]: > 100 µM | TGI [16]: > 100 µM | TGI [17]: > 100 µM | TGI [18]: > 100 µM | TGI [19]: > 100 µM | TGI [20]: > 100 µM | TGI [21]: > 100 µM | TGI [22]: > 100 µM | TGI [23]: > 100 µM | TGI [24]: > 100 µM | TGI [25]: > 100 µM | TGI [26]: > 100 µM | TGI [27]: > 100 µM | TGI [28]: > 100 µM | TGI [29]: > 100 µM | TGI [30]: > 100 µM | TGI [31]: > 100 µM | TGI [32]: > 100 µM | TGI [33]: > 100 µM | TGI [34]: > 100 µM | TGI [35]: > 100 µM | TGI [36]: > 100 µM | TGI [37]: > 100 µM | TGI [38]: > 100 µM | TGI [39]: > 100 µM | TGI [40]: > 100 µM | TGI [41]: > 100 µM | TGI [42]: > 100 µM | TGI [43]: > 100 µM | TGI [44]: > 100 µM | TGI [45]: > 100 µM | TGI [46]: > 100 µM | TGI [47]: > 100 µM | TGI [48]: > 100 µM | TGI [49]: > 100 µM | TGI [50]: > 100 µM | TGI [51]: > 100 µM | TGI [52]: > 100 µM | TGI [53]: > 100 µM | TGI [54]: > 100 µM

O=C(O)Cc1ccc(Oc2nc3ccccc3nc2-c2cccs2)cc1
TGI [1]: > 100 µM | TGI [2]: > 100 µM | TGI [3]: > 100 µM | TGI [4]: > 100 µM | TGI [55]: > 100 µM | TGI [8]: > 100 µM | TGI [56]: > 100 µM | TGI [10]: > 100 µM | TGI [11]: > 100 µM | TGI [12]: > 100 µM | TGI [57]: 63.6 µM | TGI [13]: > 100 µM | TGI [14]: > 100 µM | TGI [58]: > 100 µM | TGI [15]: > 100 µM | TGI [59]: > 100 µM | TGI [16]: > 100 µM | TGI [17]: > 100 µM | TGI [18]: > 100 µM | TGI [19]: 80.1 µM | TGI [20]: > 100 µM | TGI [60]: > 100 µM | TGI [21]: > 100 µM | TGI [23]: > 100 µM | TGI [61]: > 100 µM | TGI [24]: > 100 µM | TGI [62]: > 100 µM | TGI [63]: > 100 µM | TGI [26]: > 100 µM | TGI [27]: > 100 µM | TGI [28]: > 100 µM | TGI [29]: > 100 µM | TGI [30]: > 100 µM | TGI [31]: > 100 µM | TGI [64]: > 100 µM | TGI [32]: > 100 µM | TGI [33]: > 100 µM | TGI [34]: 83.2 µM | TGI [35]: > 100 µM | TGI [36]: > 100 µM | TGI [37]: > 100 µM | TGI [65]: > 100 µM | TGI [38]: > 100 µM | TGI [39]: 84.7 µM | TGI [40]: 56.5 µM | TGI [41]: > 100 µM | TGI [42]: > 100 µM | TGI [43]: > 100 µM | TGI [44]: > 100 µM | TGI [45]: > 100 µM | TGI [46]: > 100 µM | TGI [47]: > 100 µM | TGI [48]: > 100 µM | TGI [49]: > 100 µM | TGI [66]: > 100 µM | TGI [50]: > 100 µM | TGI [52]: > 100 µM | TGI [53]: > 100 µM | TGI [54]: > 100 µM

From PubChem BioAssay (NCI)
